One assay has as its system A549. Kind of assay: Cytotoxicity against human A549 cells. It is filed as functional.
A further assay deals with MCF7. Kind of assay: Cytotoxicity against human MCF7 cells. Type of assay: functional.
A further assay has as its system HT-29. The assay is described as follows: Cytotoxicity against human HT-29 cells. It is filed as functional.
Another assay deals with Artemia. Kind of assay: Toxicity in brine shrimp. It is filed as organism-based.

Where only a bound is given, the exact number is not on record here.

For the compound `COc1cccc2c1C(=O)c1c(O)c3c(c(O)c1C2=O)C[C@@](O)(C(=O)CO)C[C@@H]3O[C@H]1C[C@H](N)[C@H](O)[C@H](C)O1` [DOXORUBICIN], the ED50 amounted to 4.09 ×10⁻⁴ ug/ml in the assay on A549, 1.05 ×10⁻⁴ ug/ml in the assay on MCF7 and 1.12 ×10⁻⁴ ug/ml with HT-29.
In the case of `O=C1OC[C@@H]2Cc3cc4c(cc3[C@@H](c3ccc5c(c3)OCO5)[C@H]12)OCO4` [PICROPOLYGAMAIN], the IC50 with Artemia is 52.2 ppm. Also, the EC50 was less than 0.01 µg/mL with A549 (Homo sapiens, A549, read-out: ED50 (the source's name)); less than 0.01 µg/mL with MCF7 (Homo sapiens, MCF7, read-out: ED50 (the source's name)); less than 0.01 µg/mL in the assay on HT-29 (Homo sapiens, HT-29, read-out: ED50 (the source's name)).

(Values after ChEMBL document CHEMBL1150065, “Isolation of picropolygamain from the resin of Bursera simaruba” (J Nat Prod, 1992).)
